Results on three compounds are retold here after US20210113563A1, “4-(4-CYANO-2-THIOARYL)DIHYDROPYRIMIDINONES FOR TREATING CHRONIC WOUNDS” (pH Pharma Co., Ltd., priority 2015, published 2021).

What is called IC50 is the midpoint of a concentration-inhibition curve.

Assay [1] deals with T1, human neutrophil elastase (HNE) (Homo sapiens, UniProt P08246).
T1 sequence (P08246 30-267): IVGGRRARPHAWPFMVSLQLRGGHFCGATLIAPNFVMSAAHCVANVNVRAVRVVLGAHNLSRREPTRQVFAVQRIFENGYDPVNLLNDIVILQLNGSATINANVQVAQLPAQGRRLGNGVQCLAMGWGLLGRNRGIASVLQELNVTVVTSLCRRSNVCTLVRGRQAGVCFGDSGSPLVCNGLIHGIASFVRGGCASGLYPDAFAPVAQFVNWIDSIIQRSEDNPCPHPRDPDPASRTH
The settings on record: read-out: Inhibition of human neutrophil elastase (HNE) IC50; cited from earlier work.

Assay [2] deals with HaCaT cells. Kind of assay: HaCaT modified scratch assay (Oris Cell Migration Assay) with human neutrophil elastase. Type of assay: cell-based. The settings on record: 7.5 μg/mL hNE. As to the method: The modified scratch-wound assay is a simple, reproducible assay commonly used to measure basic cell migration parameters such as speed, persistence, and polarity. Cells are grown to confluence and a thin “wound” is introduced by scratching with a pipette tip. In the modified version, a plastic plug is placed into the tissue well while the cells adhere and grow to confluence. When the plug is pulled, a circular “wound” emerges. Cells at the wound edge polarise and migrate into the wound space. […] At the given time points, the size of the free area is measured.
Method: Oris Cell Migration Assay (collagen I coated) with HaCaT cells. Establishing a dose response curve for test compounds with and without addition of 7.5 μg/mL human neutrophil elastase (hNE).
For harvesting the cells, the medium was first extracted from the cell culture flask, then washed with PBS and 10-20 ml aspirated again. 2.5 ml (75 cm^2 flask bottom area) or 5 ml (162 cm^2) TrypLE Express were added, as well as the same amount of PBS followed by incubating the cells for 10 minutes (37° C.). The cells were transferred into a tube, centrifuged (250×g, 10 min, RT=room temperature) and resuspended in medium.
The following cell concentration was used: 7×10^5 cells/ml=7×10^4 cells/well/100 μl.
In this time, the cells adhered and grew to confluence. The compounds were then added to achieve the below indicated concentrations. The plugs were then removed.
Once all components were pipetted to the cells, one photo per well was taken including the “wound” (0 h). A Zeiss AxioObserver (5× lens, bright field, 5.5 V light exposure 2.2 ms) and the AxioVision software was used. […] 16 h later pictures were taken again.
The relative healing was calculated, i.e. the percentage of closed wound area compared to baseline at 0 h.
Wound healing %=100−(‘wound surface after x hours’*100/‘wound surface after 0 hours’)
From the calculated relative wound healing a graphic in GrapPad prism was created, and EC50 values were determined.
For evaluation of pictures the software ImageJ was used. For this, the ZVI files were exported within the AxioVision software as jpg. This jpg files were then opened by ImageJ. Using the Tools panel (Mode: 4-connected/Tolerance=5-20) the to be measured surface area was marked.

The subject of assay [3] is wounds of Tight Skin mice (TSK). Kind of assay: Reepithelialization and visual healing of full thickness skin excision wounds in Tight Skin mice (TSK). It counts as in vivo. The following applies: TSK mouse; for Wound closure (reepithelialization) in % of initial epidermal gap: d 12, CK16 staining. An excerpt:
OBJECTIVE: To evaluate wound closure/reepithelialization promoting effects of the Neutrophil Elastase Inhibitor Example 3 in a fibrosis-related model of delayed wound healing (Tight Skin Mouse, TSK). METHODS: Animals: mice, male+female, strain: B6.Cg-FBN1<Tsk>−/− (wt) and +/−(het), age: 5 weeks upon delivery, breeder: Bayer. Food (ssniff R/M-H) and water was provided ad libitum. Experimental procedure: Mice were randomized at day 0. At day 0, 3 full thickness excision wounds were induced. For that, animals were anesthetized (Rompun/Ketavet/NaCl 0.9% [1+3+16]) in […]. The lower back was shaved, then moistened with tap water. Pilca depilation cream was applied and left for 3-5 minutes to act, then wiped off. To prevent the animals from cooling down during the procedure, they were placed on warming mats. Skin was excised using 6 mm diameter round scalpels. After wake up mice were distributed to individual cages. Treatment: Day 0 to 11 twice daily per os. Example 3 was dissolved in PEG400 as a vehicle. Administration was twice daily (bid). Skin samples were harvested into formalin (3.7% in PBS) at day 12 after scarifying with isoflurane/O2/N2O anesthesia followed by dislocation of the cervical spine. After soaking in formalin (24-72 h), the samples were transferred to paraffin and then cut. Staining of cytokeratin 16 was performed using rabbit polyclonal anti-Keratin 16 (CK16, KRT16, ABIN265495), 1 mg/ml anti-CK16 antibody by IHC-Peroxidase (in a 1:100 dilution) EnVision+ System-HRP (DAB), for Rabbit Primary Antibodies (Dako #K4011).
Effects were most prominent on d7 and d9. All dosages were similarly effective, i.e. a clear dose response ratio remained to be established. […] Based on the size of the induced wounds, 6000 μm was set as 100%. The epidermal gap, i.e. the distance between the epidermal edges was measured by microscopic histometry. The width of the gap was subtracted from the initial wound. The delta represented the reepithelialized part of the wound and was expressed as reepithelialization in % of the initial wound diameter, i.e. 100% equaled complete reepithelialization or full wound closure.

Entries after “also recorded” stand apart in the source; their conditions may differ.

As to `CC1=C(C#N)[C@@H](c2ccc(C#N)cc2S(C)(=O)=O)N(S(C)(=O)=O)C(=O)N1c1cccc(C(F)(F)F)c1` [Example 3, (4 S)-4-[4-Cyano-2-(methylsulfonyl)phenyl]-6-methyl-3-(methylsulfonyl)-2-oxo-1-[3-(trifluoromethyl)phenyl]-1,2,3,4-tetrahydropyrimidine-5-carbonitrile], the IC50 was under 0.3 nM in assay [1] and 57.4 nM in assay [2] (Homo sapiens, 16 h). The “Correction of the reepithelialization-impairing effect of NE (in words)” value in assay [2] was “almost entirely, potently and concentration-dependently be corrected; also recorded: potently and effectively able to block detrimental effects of NE”. Besides, in assay [2] (curve fit, 16 h), the Bottom worked out at 90.41. For the same compound, the Span in assay [2] (curve fit, 16 h) is −47.65. Further, the Top in assay [2] (curve fit, 16 h) is listed as 42.75. Besides, the “Wound closure (reepithelialization) in % of initial epidermal gap” value in assay [3] (2.5 mg/kg BW twice daily p.o.) was found to be 95.8%; in assay [3] (5 mg/kg BW twice daily p.o.), 93.9%; in assay [3] (10 mg/kg BW twice daily p.o.), 99.5%; in assay [3] (20 mg/kg BW twice daily p.o.), 100%. Further, in assay [3] (2.5-20 mg/kg bid p.o., FIG. 1), the “Visual wound healing, wound area reduction over time (in words)” value is reported as “significant visual wound healing improving effects; also recorded: induced accelerated wound healing”. Besides, the “Reepithelialization vs. vehicle controls, histological (in words)” value in assay [3] (d 12) is on record as “reepithelialization was significantly further advanced”.

As to `CCS(=O)(=O)c1cc(C#N)ccc1[C@@H]1C(C#N)=C(C)N(c2cccc(C(F)(F)F)c2)C(=O)N1C` [Example 6, (4 S)-4-[4-Cyano-2-(ethylsulfonyl)phenyl]-3,6-dimethyl-2-oxo-1-[3-(trifluoromethyl)phenyl]-1,2,3,4-tetrahydropyrimidine-5-carbonitrile], the concentration for half-maximal inhibition (IC50) in assay [1] is under 0.3 nM.

In the case of `CC1=C(C#N)[C@@H](c2ccc(C#N)cc2S(C)(=O)=O)N(S(=O)(=O)C2CC2)C(=O)N1c1cccc(C(F)(F)F)c1` [Example 4, (4 S)-4-[4-Cyano-2-(methylsulfonyl)phenyl]-6-methyl-3-(cyclopropylsulfonyl)-2-oxo-1-[3-(trifluoromethyl)phenyl]-1,2,3,4-tetrahydropyrimidine-5-carbonitrile], in assay [1], the IC50 is under 0.3 nM.
